Results on 6 compounds are retold here after patent US8835632B2, “Methods to increase the photostability of dyes” (The University of North Carolina at Chapel Hill, priority 2007, dated 2014).

SMILES strings stand for the structures.

This data set in a line: Absorption and fluorescence spectra, extinction coefficient, fluorescence quantum yield. In kind it is physicochemical. The method, then: Absorption spectra were recorded on a Hewlett-Packard 8453 diode array UV-Vis spectrophotometer (Agilent Technologies, Inc., Santa Clara, Calif.), and fluorescence measurements were taken on a SPEX® Fluorolog 2 spectrofluorometer (HORIBA Jobin Yvon, Inc., Edison, N.J.). Melting points are not corrected. NMR spectra were obtained on a Varian Mercury 300 MHz (Varian, Inc., Palo Alto, Calif.) or on a Bruker 300 MHz DRX 300 spectrometer (Bruker Biospin Corp., Billerica, Mass.). Mass spectra were obtained on a Hewlett-Packard 1100 high-performance liquid chromatograph equipped with an 1100 mass selective detector (MS-ESI) (Agilent Technologies, Inc.).
With decreasing solvent polarity, the absorption maximum of dyes 1a-b, 2a-d shifted to longer wavelengths, and the intensity of the transition increased (Table 10, FIG. 11).
The SCRF/VSCRF predicted emission energies and the solute dipole moments before and after the vertical emission process are given in Table 16. The dipole moments of AI-BA(4) and AI-SO(4) are further decreased on the S1 surface after geometry relaxation (in MeOH solution), and then increased during the S1→S0 transition. This observation is consistent with the blue shifts of the emission bands of AI-BA(4) and AI-SO(4) with increasing solvent polarity from C6H6 to MeOH. By contrast, the dipole moment of I-SO further decreases after S1 state geometry relaxation, and then decreases during the vertical emission process. This observation also is in agreement with the red shift of the I-SO emission band with increasing solvent polarity from C6H6 to MeOH. Similarly to the absorption case, a negligible red shift (ΔEem=0.017 eV) was predicted for the emission band of I-TBA with increasing solvent polarity. A small red shift from C6H6 to DMF (with ΔEem=0.020 eV, or Δλmax=6 nm) is observed. The nearly equal emission energy observed in C6H6 and MeOH can again result in the explicit interactions between the solute and solvent molecules.

In the case of `Cn1c(O)c(/C=C/C=C(\C#N)c2cc[n+]3c(c2)C(C)(C)c2ccccc2-3)c(=O)n(C)c1=O` [AI-BA-CN], under “Butanol (BuOH)”, the “Absorbance λmax” value is reported as 600 nm, the “Emission λmax” value stood at 620 nm, the “Extinction coefficient ε” value stood at 189000 and the “Fluorescence quantum yield Φ” value is given as 0.25. Also, under “Methanol (MeOH)”, the “Absorbance λmax” value is 589 nm, the “Emission λmax” value was 613 nm, the “Extinction coefficient ε” value was determined as 180000 and the “Fluorescence quantum yield Φ” value was 0.05. Besides, under “Water-Methanol (H2O—MeOH)”, the “Absorbance λmax” value worked out at 578 nm, the “Emission λmax” value is on record as 607 nm, the “Extinction coefficient ε” value turned out to be 123000 and the “Fluorescence quantum yield Φ” value was 0.15.

Turning to `Cn1c(O)c(/C=C/C=C/c2cc[n+]3c(c2)C(C)(C)c2ccccc2-3)c(=O)n(C)c1=O` [AI-BA], where the note is “Butanol (BuOH)”, the “Absorbance λmax” value is 615 nm, the “Emission λmax” value is 654 nm, the “Extinction coefficient ε” value is recorded as 154000 and the “Fluorescence quantum yield Φ” value is on record as 0.29. Moreover, for the setting “Methanol (MeOH)”, the “Absorbance λmax” value turned out to be 585 nm, the “Emission λmax” value came out at 618 nm, the “Extinction coefficient ε” value is listed as 83000 and the “Fluorescence quantum yield Φ” value stood at 0.52.

In the case of `CC1(C)c2ccccc2-[n+]2ccc(/C(C#N)=C/C=C/C3=C(O)c4ccccc4S3(=O)=O)cc21` [AI-SO-CN], under “Butanol (BuOH)”, the “Absorbance λmax” value is 619 nm, the “Emission λmax” value is on record as 640 nm, the “Extinction coefficient ε” value is 168000 and the “Fluorescence quantum yield Φ” value stood at 0.29. Further, where the note is “Methanol (MeOH)”, the “Absorbance λmax” value worked out at 608 nm, the “Emission λmax” value is given as 624 nm, the “Extinction coefficient ε” value was determined as 163000 and the “Fluorescence quantum yield Φ” value is reported as 0.08. Besides, under “Water-Methanol (H2O—MeOH)”, the “Absorbance λmax” value was 601 nm, the “Emission λmax” value came out at 624 nm, the “Extinction coefficient ε” value stood at 128000 and the “Fluorescence quantum yield Φ” value is 0.08.

As for `CCn1c(O)c(/C=C/C=C(\C#N)c2cc[n+]3c(c2)C(C)(C)c2ccccc2-3)c(=O)n(CC)c1=S` [AI-TBA-CN], for the setting “Butanol (BuOH)”, the “Absorbance λmax” value came to 621 nm, the “Emission λmax” value came out at 641 nm, the “Extinction coefficient ε” value turned out to be 188000 and the “Fluorescence quantum yield Φ” value was determined as 0.33. Further, where the note is “Methanol (MeOH)”, the “Absorbance λmax” value is reported as 606 nm, the “Emission λmax” value came to 632 nm, the “Extinction coefficient ε” value is given as 146000 and the “Fluorescence quantum yield Φ” value worked out at 0.22. For the same compound, where the note is “Water-Methanol (H2O—MeOH)”, the “Absorbance λmax” value was determined as 593 nm, the “Emission λmax” value is 625 nm, the “Extinction coefficient ε” value is 77000 and the “Fluorescence quantum yield Φ” value is given as 0.17.

`CCn1c([O-])c(/C=C/C=C/c2cc[n+]3c(c2)C(C)(C)c2ccccc2-3)c(=O)n(CC)c1=S` [AI-TBA]: the “Absorbance λmax” value is listed as 619 nm (Butanol (BuOH)) and 576 nm (Methanol (MeOH)). Besides, the “Extinction coefficient ε” value is, setting by setting: (Butanol (BuOH)) 53000; (Methanol (MeOH)) 38000. Besides, the “Absorption energy Eabs Exp” value by setting is: (C6H6) 1.816 eV; (MeOH) 2.153 eV. The “Observed absorption (ε)” value is, setting by setting: (Table 10, BuOH) “(53000)”; (Table 10, C6H6) “(135000)”; (Table 10, CH2Cl2) “(104000)”; (Table 10, CH3CN) “(54000)”; (Table 10, DMF) “(52000)”; (Table 10, DMSO) “(56000)”. The “Observed absorption (ε)” value is “(46000)” (Table 10, EtOH); “(38000)” (Table 10, MeOH); “(97000)” (Table 10, OcOH); “(50000)” (Table 10, i-PrOH). In addition, the “Observed absorption λmax” value runs as follows: (Table 10, BuOH) 619 nm; (Table 10, C6H6) 683 nm; (Table 10, CH2Cl2) 655 nm; (Table 10, CH3CN) 615 nm; (Table 10, DMF) 616 nm; (Table 10, DMSO) 607 nm. Further, the “Observed absorption λmax” value (Table 10, EtOH) is 603 nm; the “Observed absorption λmax” value (Table 10, MeOH) is reported as 576 nm; the “Observed absorption λmax” value (Table 10, OcOH) is on record as 633 nm; the “Observed absorption λmax” value (Table 10, i-PrOH) is 618 nm. Besides, the “Absorption Exp wavelength” value stood at 683 nm (Table 12, C6H6) and 576 nm (Table 12, MeOH).

Turning to `C[n+]1ccc(/C=C/C2=C([O-])c3ccccc3S2(=O)=O)cc1` [P-SO(2)], the “Observed absorption (ε)” value by setting is: (Table 10, BuOH) “(67000)”; (Table 10, C6H6) “(169000)”; (Table 10, CH2Cl2) “(128000)”; (Table 10, CH3CN) “(89000)”; (Table 10, DMF) “(92000)”; (Table 10, DMSO) “(75000)”. Further, the “Observed absorption (ε)” value reads like this: (Table 10, EtOH) “(65000)”; (Table 10, MeOH) “(57000)”; (Table 10, OcOH) “(72000)”; (Table 10, i-PrOH) “(72000)”. In addition, the “Observed absorption λmax” value runs as follows: (Table 10, BuOH) 519 nm; (Table 10, C6H6) 538 nm; (Table 10, CH2Cl2) 529 nm; (Table 10, CH3CN) 546 nm; (Table 10, DMF) 522 nm; (Table 10, DMSO) 520 nm. The “Observed absorption λmax” value is listed as 514 nm (Table 10, EtOH); 505 nm (Table 10, MeOH); 524 nm (Table 10, OcOH); 518 nm (Table 10, i-PrOH). The “Observed emission (Φ)” value came to 0.015 (Table 15, BuOH); 0.004 (Table 15, C6H6); 0.01 (Table 15, CH2Cl2); 0.011 (Table 15, CH3CN); 0.025 (Table 15, DMF); 0.024 (Table 15, DMSO). The “Observed emission (Φ)” value is reported as 0.008 (Table 15, EtOH); 0.005 (Table 15, MeOH); 0.024 (Table 15, OcOH); 0.014 (Table 15, i-PrOH). Moreover, the “Observed emission λmax” value was determined as 535 nm (Table 15, BuOH); 546 nm (Table 15, C6H6); 541 nm (Table 15, CH2Cl2); 531 nm (Table 15, CH3CN); 534 nm (Table 15, DMF); 535 nm (Table 15, DMSO). Besides, the “Observed emission λmax” value runs as follows: (Table 15, EtOH) 533 nm; (Table 15, MeOH) 529 nm; (Table 15, OcOH) 536 nm; (Table 15, i-PrOH) 532 nm.
